Test results reported in patent US20250092058A1 (priority 2018, published 2025).
Like-named read-outs stand apart in the source and are kept apart here.

How the values were obtained:
[1] = tested on: A2008; assay: MTT assay A2008; assay type: cell-based; settings: Table 9; A2008
Procedure: (§1) MTT assays. […] Viable cells (2500 cells per well) were plated in each well in 96-well plates. After an overnight incubation, cells were treated with and without relevant drugs alone and in combination, respectively, at various concentrations and incubated for 72 hours. MTT, a colorimetric substrate, was added to a final concentration of 0.4 mg/ml to each well. Cells in 96-well plates were further incubated in a 5% CO2 incubator at 37° C. for 4 hours, and then the medium was aspirated. The MTT metabolic product formazan was solubilized by adding 200 ul of DMSO to each well. Absorbance in the relevant wells was measured at 570 nm using an Ultra Microplate Reader (Bio-Tek Instruments). Each experiment was performed at least in triplicate. IC50/EC50 values were calculated from a series of drug dose ranges for each analyzed compound, using GraphPad Prism 6 (GraphPad Software, Inc., La Jolla, CA).
(§2) The inhibition of cell growth and viability in various cancer cell types were tested using MTT assay for references.

[2] = tested on: A549; assay: MTT assay A549; assay type: cell-based, human; settings: Table 9
Procedure: (§3) MTT assays. […] Each experiment was performed at least in triplicate.

[3] = tested on: UOK262
Procedure: as §1, §2

[4] = tested on: UOK151
Procedure: as §1, §2

[5] = tested on: PDX14244 and PDX27454; assay: Pancreatic PDX14244 (left flank) and colorectal PDX27454 (right flank) in the same SCID mice; assay type: in vivo; settings: for antitumor activity and toxicity, Hx-series: oral weekly for 3 times
Procedure: Human xenograft tumors used.
The vehicle is the same aqueous suspension without FL7N-1. Experimental SCID mice were subcutaneously implanted with 30-40 mg individual PDX tumors (isolated from maintenance mice) at the flank area (left side for PDX14244, and right side for PDX27454) of SCID mice. […] The animal model of PDX tumors was orally treated weekly for 3 times as shown with black arrows. […] Thus, FL7N-1 may be a priority candidate to be developed for treatment of children rare disease retinoblastoma.
(§4) The vehicle is the same think aqueous suspension without drug. Experimental SCID mice were subcutaneously implanted with 30-40 mg individual PDX tumors (isolated from maintenance mice) at the flank area (left side for PDX14244, and right side for PDX27454) of SCID mice. […] The animal model of PDX tumors was orally treated weekly for 3 times as shown with black arrows.
as §4, with “for 4” for “for 3”, “times (one cycle/course,” for “times”, “black arrows).” for “black arrows.”
as §4, with “times in two doses due to drug limitation then (as” for “times as”, “black arrows).” for “black arrows.”

[6] = tested on: HT-3; assay: MTT assay HT-3; assay type: cell-based, human; settings: Table 7; HT-3
Procedure: as §1, §2

[7] = tested on: Wer 127; assay: MTT assay Wer 127; assay type: cell-based; settings: Table 7
Procedure: as §3

[8] = tested on: Y79; assay: MTT assay Y79; assay type: cell-based; settings: Table 7
Procedure: as §3

[9] = tested on: HT-3 retinoblastoma xenograft tumors; settings: oral; for overall antitumor activity versus toxicity ranking: multiple doses, weekly×4; for antitumor activity and toxicity profile: one time, 3-4 doses
Procedure: Human HT-3 retinoblastoma xenograft tumors were initially established by subcutaneously injection of 2-5×10^6 HT-3 cells in a volume of 100-200 μL medium. Mouse models of HT-3 xenografts were set up by subcutaneously inoculating 30-40 mg tumor tissue on the flank of SCID mice. Treatment with individual compounds was initiated 7-14 days after the transplanted tumors reached 100-200 mm^3 (designated day 0). […] The individual compounds were formulated in an organic solvent-free with HPPCD as drug carriers in 2% HPMC (hydroxypropyl methylcellulose) and 1% PG (propylene glycol) in saline (a thick aqueous suspension) for oral administration. The vehicle is the same thick aqueous suspension without drug. A. FL7s-3-treated xenograft tumor curve profile (left panel) and body weight profile (right panel) over the experimental period. B. FL7s-4-treated xenograft tumor curve profile (left panel) and body weight profile (right panel) over the experimental period. C. FL7s-7-treated xenograft tumor curve profile (left panel) and body weight profile (right panel) over the experimental period.
Human xenograft tumors used. In this invention disclose, human SW620 (colorectal), HT29 (colorectal) and HT-3 (retinoblastoma) cancer cell line-established xenograft tumors were used. Human tumor cell line-derived xenograft tumors are initially established by subcutaneously injecting 2-5×10^6 cultured cancer cells in a volume of 100-150 p L medium into the flank area of severe combined immunodeficiency (SCID) mice. The derived tumors are then passed a couple of generations in mice by transplanting 30-50 mg non-necrotic tumor mass via a trocar for experiments or maintenance. […] PDX tumors were originally established on severe Combined Immunodeficiency (SCID) mice from pancreatic and colorectal cancer patient tumor tissues obtained from metastatic sites of the disease in the clinic.
To these three novel compounds, we performed in vivo animal model studies to evaluate their antitumor activity and toxicity using the HT-3 retinoblastoma xenograft tumor models. In this experiment, we still took advantage of the newly developed formulation for oral administration of compounds.

[10] = tested on: HCT116; assay: MTT assay HCT116; assay type: cell-based, human; settings: Table 8
Procedure: as §3

[11] = tested on: T24; assay: MTT assay T24; assay type: cell-based; settings: Table 5 lower part; T24 bladder cancer
Procedure: as §1, §2

[12] = tested on: H1376; settings: Table 5 lower part; H1376 bladder cancer
Procedure: as §1, §2

[13] = tested on: UMUC-3; settings: Table 5 lower part; UMUC-3 bladder cancer
Procedure: as §1, §2

[14] = tested on: RT4; assay: MTT assay RT4; assay type: cell-based; settings: Table 5 lower part; RT4 bladder cancer
Procedure: as §1, §2

CC[C@@]1(O)C(=O)OCc2c1cc1n(c2=O)Cc2c-1nc1cc3c(cc1c2-c1cc(C(F)(F)F)cc(C(F)(F)F)c1)OCO3 [W-b10/Hx7]
IC50/EC50 [1]: 7.31 nM | IC50/EC50 [2]: 5.29 nM | IC50/EC50 ([3]; Table 10, UOK262): 33.4 nM | IC50/EC50 ([4]; Table 10, UOK151): >500 nM | antitumor activity and toxicity, Hx-series [5]: much higher antitumor activity with favorable toxicity

CC[C@@]1(O)C(=O)OCc2c1cc1n(c2=O)Cc2c-1nc1cc3c(cc1c2CCc1ccccc1Cl)OCO3 [FL7-15, 20 (S)-7-(2-chloro-phenethyl)-10,11-methylenedioxy-camptothecin]
IC50/EC50 [6]: 45.81 nM | IC50/EC50 [7]: >500 nM | IC50/EC50 [8]: 12.59 nM | overall antitumor activity versus toxicity ranking [9]: not as good as FL7-5 and FL7-14

CC[C@@]1(O)C(=O)OCc2c1cc1n(c2=O)Cc2c-1nc1cc3c(cc1c2-c1cnn(C)c1)OCO3 [W-b5]
IC50/EC50 [1]: 17.5 nM | IC50/EC50 [2]: 2.29 nM

CC[C@@]1(O)C(=O)OCc2c1cc1n(c2=O)Cc2c-1nc1cc3c(cc1c2-c1ccncc1)OCO3 [W-b1, 20 (S)-7-(pyridyl-4-)-FL118 (10,11-methylenedioxy-camptothecin)]
IC50/EC50 [1]: 24.4 nM | IC50/EC50 [2]: 73.4 nM

CC[C@@]1(O)C(=O)OCc2c1cc1n(c2=O)Cc2c-1nc1cc3c(cc1c2CCN1CCSCC1)OCO3 [Compound 7N3, 20 (S)-7-thiomorpholinylethyl-10,11-methylenedioxy-camptothecin]
antitumor activity and toxicity profile [9]: great antitumor activity and favorable toxicity profiles | IC50/EC50 [10]: 171.9 nM

CC[C@@]1(O)C(=O)OCc2c1cc1n(c2=O)Cc2c-1nc1cc3c(cc1c2-c1ccsc1)OCO3 [W-b4]
IC50/EC50 [1]: 31.9 nM | IC50/EC50 [2]: 1.99 nM

CC[C@@]1(O)C(=O)OCc2c1cc1n(c2=O)Cc2c-1nc1cc3c(cc1c2-c1ccco1)OCO3 [W-b7]
IC50/EC50 [1]: 0.19 nM | IC50/EC50 [2]: 0.39 nM

CC[C@@]1(O)C(=O)OCc2c1cc1n(c2=O)Cc2c-1nc1cc3c(cc1c2-c1ccc(OC)cc1)OCO3 [7Q 9]
IC50/EC50 [11]: 0.32 nM | IC50/EC50 ([3]; Table 5 lower part, UOK262 kidney cancer): 32 nM | IC50/EC50 [12]: >500 nM | IC50/EC50 [13]: 0.35 nM | IC50/EC50 ([4]; Table 5 lower part, UOK151 kidney cancer): 50 nM | IC50/EC50 [14]: 3.37 nM | antitumor activity, 7Q-series (1) ([5]; oral weekly for 4 times): much higher antitumor activity than the other compounds in this 7Q-series (1)

CC[C@@]1(O)C(=O)OCc2c1cc1n(c2=O)Cc2c-1nc1cc3c(cc1c2CCN1CCCCC1C)OCO3 (some centres unmarked) [Compound 7N2]
antitumor activity and toxicity profile [9]: great antitumor activity and favorable toxicity profiles | IC50/EC50 [10]: 25.62 nM

CC[C@@]1(O)C(=O)OCc2c1cc1n(c2=O)Cc2c-1nc1cc3c(cc1c2-c1ccc(F)c(F)c1)OCO3 [HX6]
IC50/EC50 ([3]; Table 10, UOK262): 4.9 nM | IC50/EC50 ([4]; Table 10, UOK151): 4.6 nM | antitumor activity and toxicity, Hx-series [5]: much higher antitumor activity with favorable toxicity

CC[C@@]1(O)C(=O)OCc2c1cc1n(c2=O)Cc2c-1nc1cc3c(cc1c2-c1ccc(CO)cc1)OCO3 [W-b9]
IC50/EC50 [1]: 3.49 nM | IC50/EC50 [2]: 1.28 nM

CC[C@@]1(O)C(=O)OCc2c1cc1n(c2=O)Cc2c-1nc1cc3c(cc1c2/C=C/c1ccc(F)cc1)OCO3 [FL7s-3]
IC50/EC50 [6]: 1.68 nM | IC50/EC50 [7]: 40.69 nM | IC50/EC50 [8]: 0.61 nM | overall antitumor activity versus toxicity ranking [9]: top two candidates

CC[C@@]1(O)C(=O)OCc2c1cc1n(c2=O)Cc2c-1nc1cc3c(cc1c2CCc1ccc(Br)cc1)OCO3 [FL7-17, 20 (S)-7-(4-bromo-phenethyl)-10,11-methylenedioxy-camptothecin]
IC50/EC50 [6]: 6.48 nM | IC50/EC50 [7]: 2.48 nM | IC50/EC50 [8]: 1.57 nM | overall antitumor activity versus toxicity ranking [9]: not as good as FL7-5 and FL7-14
